Consider two compounds from publication PMC11395333, “The Bifunctional Dimer Caffeine-Indan Attenuates α-Synuclein Misfolding, Neurodegeneration and Behavioral Deficits after Chronic Stimulation of Adenosine A1 Receptors” (International Journal of Molecular Sciences, 2024).

Experiment [1] has as its system α-Syn. Set-up: method as in PMID 27673434. The settings on record: isothermal titration calorimetry; cited from earlier work.
A further experiment has as its system male Sprague-Dawley rats. Briefly: Open field test after 7-day chronic i.p. CPA injection. Type of experiment: in vivo, rat. The source says: All animals were housed and treated humanely following the guidelines from the following governing bodies: National Research Council (US) Committee for the Update of the Guide for the Care and Use of Laboratory Animals (Washington DC, USA, 2011); Canadian Council on Animal Care (CCAC); and the University of Saskatchewan Animal Research Ethics Board (AREB), which approved our Animal Use Protocol (#20070090 and #20170079). The animals were housed in cages of two, with access to food pellets and water ad libitum. The four treatments of the Sprague-Dawley rats consisted of the following: 1. Control (0.1% DMSO in 0.9% saline); 2. CPA; 3. […] Drugs were dissolved at 3 mg/mL in DMSO, and each drug was administered to the animals by daily i.p. injections (3 mg/kg or 5 mg/kg body weight) for 7 consecutive days. […] Then, on days 8 and 9 following the final injections, the animals were subjected to several behavioral tests. The open field is a general locomotor test that detects anxiety and willingness to explore. The test is conducted in a white open cube measuring 50 cm in length, 50 cm in width and 35 cm in depth. The bottom field is gridded in 4x4 squares at 12.5 cm, with a center square in the middle of the field. The animal is placed in the center square and is free to explore the entirety of the field for 15 min. […] This trial is then used to calculate the percentage of time the animals spent in the center zone (red square) and the total fecal boli count. A video camera was used to record the animal movement in this test. The open field test was conducted after a 1 h resting period from the time the Y-maze second trial was completed. Each experiment was repeated at least ten times per treatment and the average of each treatment is presented in the bar graphs as average means ± SEM.

For experiment [2], the system named is α-Syn. Briefly: Immunohistochemistry and Thioflavin-S staining of brain slices (α-Syn expression and aggregation). Type of experiment: in vivo, rat. From the text: All animals were housed and treated humanely following the guidelines from the following governing bodies: National Research Council (US) Committee for the Update of the Guide for the Care and Use of Laboratory Animals (Washington DC, USA, 2011); Canadian Council on Animal Care (CCAC); and the University of Saskatchewan Animal Research Ethics Board (AREB), which approved our Animal Use Protocol (#20070090 and #20170079). The animals were housed in cages of two, with access to food pellets and water ad libitum. The four treatments of the Sprague-Dawley rats consisted of the following: 1. Control (0.1% DMSO in 0.9% saline); 2. CPA; 3. […] Drugs were dissolved at 3 mg/mL in DMSO, and each drug was administered to the animals by daily i.p. injections (3 mg/kg or 5 mg/kg body weight) for 7 consecutive days. […] Then, on days 8 and 9 following the final injections, the animals were subjected to several behavioral tests.
Anesthetized rats were transcardially perfused with 0.9% saline, and then fixed with 4% paraformaldehyde. The extracted brains were put in 30% cryoprotected sucrose solution for 48 h prior to slicing. The brains were initially frozen at −40 °C (BFS-30 mp controllers) and sliced with the help of a microtome (Leica SM2010 R Sliding controller). Coronal slices of 40 μm were then washed three times in 0.1 M phosphate-buffered saline followed by 1 h blocking at room temperature with blocking buffer. The buffer solution components have been previously described. The slices were then incubated overnight at 4 °C with the following primary antibodies: 1:200 mouse monoclonal to α-synuclein (Abcam Inc, Toronto, ON, Canada; Cat# ab280377) and 1:200 rabbit polyclonal to tyrosine hydroxylase (TH) (Millipore-Sigma, Oakville, ON, Canada; Cat# AB152). Subsequently, slices were then incubated for 1 h in the dark at room temperature with the following secondary antibodies (1:1000): AlexaFluor-555-conjugated anti-mouse (Cat# A-21127) and AlexaFluor-647-conjugated anti-rabbit (Cat# A-21244) purchased from Invitrogen (Thermo Fisher Scientific, Waltham, MA, USA). Slices were then treated with Thioflavin-S (see further details below). Lastly, the slices were incubated for 5 min at room temperature with DAPI (2 mg/mL) from Invitrogen (Thermo Fisher Scientific; Cat# R37606) and images were taken using a Zeiss LSM700 confocal microscope (Carl Zeiss Group, Toronto, ON, Canada) and analyzed with ImageJ (Open-Source Public Domain software, United States National Institute of Health (US NIH), Bethesda, MD, USA). Images of the hippocampal CA1 pyramidal layer and the SN pars compacta were obtained using the Zeiss Plan-Apochromat 63X/1.4 oil objective lens (Carl Zeiss Group, Toronto, ON, Canada). Images were acquired as Z-stack images of hippocampal or SN regions with 12–13 Z-stack images taken at 1 µm intervals near the middles of brain slices. Two Z-stack images were taken along the hippocampal CA1 or SN pars compacta region for each slice, and immunofluorescence signals were averaged using densitometry analysis.
Thioflavin-S (Thio-S) is a fluorescent marker (Sigma-Aldrich, Oakville, ON, Canada; Cat# T1892-25G) that detects α-Syn aggregates and amyloid plaques. Coronal slices of 40 μm were firstly treated with 0.3% KMnO4 for 4 min, followed by a 30 min incubation with 1 M phosphate buffered saline at 4 °C. These slices were then stained with 0.05% Thioflavin-S in 50% ethanol in the dark for 8 min, rinsed with 80% ethanol twice, followed by three rinses with ultra-pure water for 30 s. Finally, the slices were incubated again with 1 M phosphate buffered saline for 30 min at 4 °C before starting the DAPI stain. The FITC filter (488 nm laser line) was used to image Thioflavin-S using a Zeiss LSM700 confocal microscope (Carl Zeiss Group, Canada) and images were analyzed with ImageJ (Public Domain).

For experiment [3], the system named is one- and two-copied α-Syn-Green Fluorescent Protein (GFP) yeast strain. On the set-up: method as in PMID 27673434. The settings on record: cited from earlier work.
[4] abbreviates: CPA 3 mg/kg i.p. daily for 7 days, alone.

Turning to `Cn1c(=O)c2c(nc(CCCCCCNC3CCc4ccccc43)n2C)n(C)c1=O` (centres unmarked) [C8–6–I], in the experiment on α-Syn [1], the “Binding constant with α-Syn” value was 53000 M⁻¹ and the “Number of binding sites with α-Syn” value was “one binding site”. Besides, the “Open field, fecal boli count” value with male Sprague-Dawley rats (3 and 5 mg/kg i.p. with 3 mg/kg CPA, 7 days) is “significantly decreased the fecal boli count”. For the same compound, the “Open field, exploratory behavior and anxiety” value in the experiment on male Sprague-Dawley rats (co-administered with 3 mg/kg CPA, 7 days) was “improved the exploratory behavior and reduced the anxiety caused by CPA”. Moreover, in the experiment with α-Syn [2] (3 mg/kg + CPA), the “Thio-S levels in CA1 hippocampus” value is “abolished the CPA-induced Thio-S levels”. Further, in the experiment with α-Syn [2] (3 mg/kg + CPA, compared to control), the “Thio-S levels in SNc” value is on record as “significant increase in Thio-S levels”. Also, in the experiment with α-Syn [2] (5 mg/kg + CPA), the “Thio-S levels in SNc” value was “reached control levels” and the “Thio-S levels in hippocampus” value was “moderate but significant Thio-S level increase”. The “α-Syn levels in SNc and CA1 hippocampal region” value in the experiment with α-Syn [2] (co-treatment with 3 mg/kg CPA, 7 days) was “prevented this α-Syn upregulation”. The “Rescue from α-Syn-induced cell death” value in experiment [3] (galactose promoter) was “successful in rescuing the one- and two-copied α-Syn-Green Fluorescent Protein (GFP) yeast strain from α-Syn-induced cell death”. For the same compound, the “Prevention of large α-Syn foci” value in experiment [3] (one- and two-copied α-Syn-GFP yeast) is on record as “effective in preventing large α-Syn foci”.

In the case of `OC[C@H]1O[C@@H](n2cnc3c(NC4CCCC4)ncnc32)[C@H](O)[C@@H]1O` [CPA, N^6-Cyclopentyladenosine, reference compound], the “Open field, percentage of time spent in the center square” value in the experiment on male Sprague-Dawley rats (setting [4]) is “significantly lower percentage of time spent in the center square”. Also, the “α-Syn levels in SNc and CA1 hippocampal region” value with α-Syn [2] (setting [4]) is “markedly increased”. Also, the “Thio-S levels in SNc” value in the experiment with α-Syn [2] (CPA 3 mg/kg i.p. daily for 7 days, alone, compared to control) is on record as “significant increase in Thio-S levels”.
